The supplement of paper PMC11208160

experiment: recombinant barcode read abundance after kanamycin selection (control-corrected) (log10(CPM+1)); higher = more efficient recombination; sequences stand for … in AGTGCAGAGAAAATCGGCCAGTTTTCTCTGCCTGCAGTCCGCATGCCGT…ATTTATGCAGCGGACTGCCTTTCTCCCAAAGTGATAAACCGGACAGTATCATGGACCGGTTTTCCCGGTAATCCGTATTTGCAAGGTTGGTTTCACT; site = the 11-nt target
How it was run: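 In a pooled screen in E. coli, targets were paired with target-binding loops of the IS621 bridge RNA. Each oligo carried a promoter, a target, a barcode and the first 104 bridge RNA bases driven by J23119, and was Gibson-cloned into a vector holding the remaining 73 bp and a T7-inducible recombinase before co-electroporation with a donor plasmid. Duplicate platings went onto chloramphenicol/ampicillin LB agar as the control or onto chloramphenicol/ampicillin/kanamycin with 0.1 mM IPTG. Recombination efficiency is the averaged, control-corrected count per million of barcodes at recombinant junctions, given as log10(CPM+1).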

Sequence	recombinant barcode read abundance (log10)
GGGCGTGCTTGGGTTCTAACCTGTTGCCTAA [GGGCGTGCTAG_LTGcore_CT_RTGcore_TT] (site GGGCGTGCTAG) (LTG core: CT, RTG core: TT)	0.104
GGGCGTGCTTGGGTTCTAACCTGTTGCCTAC [GGGCGTGCTAG_LTGcore_CT_RTGcore_GT] (site GGGCGTGCTAG) (LTG core: CT, RTG core: GT)	0.107
GGGCGTGCTTGGGTTCTAACCTGTTGCCTAG [GGGCGTGCTAG_LTGcore_CT_RTGcore_CT] (site GGGCGTGCTAG) (LTG core: CT, RTG core: CT)	1.41
GGGCGTGCTTGGGTTCTAACCTGTTGCCTAT [GGGCGTGCTAG_LTGcore_CT_RTGcore_AT] (site GGGCGTGCTAG) (LTG core: CT, RTG core: AT)	1.05
GGGCGTGCTTGGGTTCTAACCTGTTGCCTGA [GGGCGTGCTAG_LTGcore_CT_RTGcore_TC] (site GGGCGTGCTAG) (LTG core: CT, RTG core: TC)	1.02
GGGCGTGCTTGGGTTCTAACCTGTTGCCTGT [GGGCGTGCTAG_LTGcore_CT_RTGcore_AC] (site GGGCGTGCTAG) (LTG core: CT, RTG core: AC)	0.536
GGGCGTGCTTGGGTTCTAACCTGTTGCCTTT [GGGCGTGCTAG_LTGcore_CT_RTGcore_AA] (site GGGCGTGCTAG) (LTG core: CT, RTG core: AA)	0.509
GGGCGTGTCTGGGTTCTAACCTGTTGCCTGA [GGGCGTGCTAG_LTGcore_TC_RTGcore_TC] (site GGGCGTGCTAG) (LTG core: TC, RTG core: TC)	0.157
GGGCGTGTGTGGGTTCTAACCTGTTGCCTCA [GGGCGTGCTAG_LTGcore_TG_RTGcore_TG] (site GGGCGTGCTAG) (LTG core: TG, RTG core: TG)	0.0289
GGTGCCCACTGGGTTCTAACCTGTTGCCGAG [GGTGCCCCTCG_LTGcore_AC_RTGcore_CT] (site GGTGCCCCTCG) (LTG core: AC, RTG core: CT)	0.416
GGTGCCCATTGGGTTCTAACCTGTTGCCGAG [GGTGCCCCTCG_LTGcore_AT_RTGcore_CT] (site GGTGCCCCTCG) (LTG core: AT, RTG core: CT)	0.111
GGTGCCCCTTGGGTTCTAACCTGTTGCCGAA [GGTGCCCCTCG_LTGcore_CT_RTGcore_TT] (site GGTGCCCCTCG) (LTG core: CT, RTG core: TT)	0.481
GGTGCCCCTTGGGTTCTAACCTGTTGCCGAG [GGTGCCCCTCG_LTGcore_CT_RTGcore_CT] (site GGTGCCCCTCG) (LTG core: CT, RTG core: CT)	1.46
GGTGCCCCTTGGGTTCTAACCTGTTGCCGCA [GGTGCCCCTCG_LTGcore_CT_RTGcore_TG] (site GGTGCCCCTCG) (LTG core: CT, RTG core: TG)	0.0728
GGTGCCCCTTGGGTTCTAACCTGTTGCCGTT [GGTGCCCCTCG_LTGcore_CT_RTGcore_AA] (site GGTGCCCCTCG) (LTG core: CT, RTG core: AA)	0.0623
GTCGCCCACTGGGTTCTAACCTGTTGCTAGT [GTCGCCCCTTA_LTGcore_AC_RTGcore_AC] (site GTCGCCCCTTA) (LTG core: AC, RTG core: AC)	0.348
GTCGCCCATTGGGTTCTAACCTGTTGCTAAT [GTCGCCCCTTA_LTGcore_AT_RTGcore_AT] (site GTCGCCCCTTA) (LTG core: AT, RTG core: AT)	0.182
GTCGCCCCTTGGGTTCTAACCTGTTGCTAGT [GTCGCCCCTTA_LTGcore_CT_RTGcore_AC] (site GTCGCCCCTTA) (LTG core: CT, RTG core: AC)	0.644
GTCGCCCCTTGGGTTCTAACCTGTTGCTATC [GTCGCCCCTTA_LTGcore_CT_RTGcore_GA] (site GTCGCCCCTTA) (LTG core: CT, RTG core: GA)	0.434
GTCGCCCTATGGGTTCTAACCTGTTGCTAAG [GTCGCCCCTTA_LTGcore_TA_RTGcore_CT] (site GTCGCCCCTTA) (LTG core: TA, RTG core: CT)	0.0747
GTCGCCCTGTGGGTTCTAACCTGTTGCTAAG [GTCGCCCCTTA_LTGcore_TG_RTGcore_CT] (site GTCGCCCCTTA) (LTG core: TG, RTG core: CT)	0.405
TAAGAATACTGGGTTCTAACCTGTTGCCTAG [TAAGAATCTAG_LTGcore_AC_RTGcore_CT] (site TAAGAATCTAG) (LTG core: AC, RTG core: CT)	0.0833
TAAGAATCCTGGGTTCTAACCTGTTGCCTGG [TAAGAATCTAG_LTGcore_CC_RTGcore_CC] (site TAAGAATCTAG) (LTG core: CC, RTG core: CC)	0.0748

Sequence	recombinant barcode read abundance (log10)
TAAGAATCGTGGGTTCTAACCTGTTGCCTAG [TAAGAATCTAG_LTGcore_CG_RTGcore_CT] (site TAAGAATCTAG) (LTG core: CG, RTG core: CT)	0.349
TAAGAATCTTGGGTTCTAACCTGTTGCCTGG [TAAGAATCTAG_LTGcore_CT_RTGcore_CC] (site TAAGAATCTAG) (LTG core: CT, RTG core: CC)	0.39
TAAGAATCTTGGGTTCTAACCTGTTGCCTTG [TAAGAATCTAG_LTGcore_CT_RTGcore_CA] (site TAAGAATCTAG) (LTG core: CT, RTG core: CA)	0.89
TAAGAATGTTGGGTTCTAACCTGTTGCCTAC [TAAGAATCTAG_LTGcore_GT_RTGcore_GT] (site TAAGAATCTAG) (LTG core: GT, RTG core: GT)	0.128
TAAGAATGTTGGGTTCTAACCTGTTGCCTAG [TAAGAATCTAG_LTGcore_GT_RTGcore_CT] (site TAAGAATCTAG) (LTG core: GT, RTG core: CT)	0.127
TAAGAATTATGGGTTCTAACCTGTTGCCTTA [TAAGAATCTAG_LTGcore_TA_RTGcore_TA] (site TAAGAATCTAG) (LTG core: TA, RTG core: TA)	0.111
TAGAGGGAGTGGGTTCTAACCTGTTGCGGAG [TAGAGGGCTCC_LTGcore_AG_RTGcore_CT] (site TAGAGGGCTCC) (LTG core: AG, RTG core: CT)	0.0663
TAGAGGGAGTGGGTTCTAACCTGTTGCGGCT [TAGAGGGCTCC_LTGcore_AG_RTGcore_AG] (site TAGAGGGCTCC) (LTG core: AG, RTG core: AG)	0.0923
TAGAGGGCATGGGTTCTAACCTGTTGCGGAG [TAGAGGGCTCC_LTGcore_CA_RTGcore_CT] (site TAGAGGGCTCC) (LTG core: CA, RTG core: CT)	2.42
TAGAGGGCCTGGGTTCTAACCTGTTGCGGGG [TAGAGGGCTCC_LTGcore_CC_RTGcore_CC] (site TAGAGGGCTCC) (LTG core: CC, RTG core: CC)	0.132
TAGAGGGCGTGGGTTCTAACCTGTTGCGGCG [TAGAGGGCTCC_LTGcore_CG_RTGcore_CG] (site TAGAGGGCTCC) (LTG core: CG, RTG core: CG)	0.0165
TAGAGGGCTTGGGTTCTAACCTGTTGCGGAA [TAGAGGGCTCC_LTGcore_CT_RTGcore_TT] (site TAGAGGGCTCC) (LTG core: CT, RTG core: TT)	0.746
TAGAGGGCTTGGGTTCTAACCTGTTGCGGAC [TAGAGGGCTCC_LTGcore_CT_RTGcore_GT] (site TAGAGGGCTCC) (LTG core: CT, RTG core: GT)	1.38
TAGAGGGCTTGGGTTCTAACCTGTTGCGGCT [TAGAGGGCTCC_LTGcore_CT_RTGcore_AG] (site TAGAGGGCTCC) (LTG core: CT, RTG core: AG)	0.623
TAGAGGGCTTGGGTTCTAACCTGTTGCGGTG [TAGAGGGCTCC_LTGcore_CT_RTGcore_CA] (site TAGAGGGCTCC) (LTG core: CT, RTG core: CA)	0.438
TAGAGGGGGTGGGTTCTAACCTGTTGCGGAG [TAGAGGGCTCC_LTGcore_GG_RTGcore_CT] (site TAGAGGGCTCC) (LTG core: GG, RTG core: CT)	0.0671
TAGAGGGGGTGGGTTCTAACCTGTTGCGGCC [TAGAGGGCTCC_LTGcore_GG_RTGcore_GG] (site TAGAGGGCTCC) (LTG core: GG, RTG core: GG)	0.114
TAGAGGGTCTGGGTTCTAACCTGTTGCGGGA [TAGAGGGCTCC_LTGcore_TC_RTGcore_TC] (site TAGAGGGCTCC) (LTG core: TC, RTG core: TC)	0.0922
TAGAGGGTGTGGGTTCTAACCTGTTGCGGAG [TAGAGGGCTCC_LTGcore_TG_RTGcore_CT] (site TAGAGGGCTCC) (LTG core: TG, RTG core: CT)	0.173
TAGAGGGTTTGGGTTCTAACCTGTTGCGGAA [TAGAGGGCTCC_LTGcore_TT_RTGcore_TT] (site TAGAGGGCTCC) (LTG core: TT, RTG core: TT)	0.0961
TAGAGGGTTTGGGTTCTAACCTGTTGCGGAG [TAGAGGGCTCC_LTGcore_TT_RTGcore_CT] (site TAGAGGGCTCC) (LTG core: TT, RTG core: CT)	0.949
TCGCGACAATGGGTTCTAACCTGTTGCCGAG [TCGCGACCTCG_LTGcore_AA_RTGcore_CT] (site TCGCGACCTCG) (LTG core: AA, RTG core: CT)	0.0505
